Common to all, as to type: in vivo
The test system of one series is Cyperus difformis. The experiment in a line: Test Example 3: herbicidal effect by foliage application, Wagner pot (symbol E). The settings on record: application herbicide amount 320 g/ha. Put shortly:
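Foliar spray of a water-diluted emulsion at a predetermined herbicide amount, applied to 14-day-old plants. Seedlings were raised in flooded alluvial soil (0.1–0.5 cm water) at 25–30 °C in a greenhouse. Injury was rated after 3 weeks against fixed criteria.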

The next series relates to Avena fatua. In words: Test Example 5: herbicidal effect by foliage application, plastic box (symbol I). The settings on record: 320 g/ha, 3 weeks after application. The gist of the method: (§1)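 Sowing in sterilized diluvial soil, 14 days' greenhouse growth at 25° C. to 30° C., then uniform small-sprayer foliar application of aqueous emulsion dilution; plants scored three weeks afterwards.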

For another series, the system named is Galium spurium. In words: Test Example 4: herbicidal effect by soil treatment (symbol Q). The settings on record: for Q: Galium spurium, herbicidal effect grade: 320 g/ha. The gist of the method:
(§2)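 Seeds were sown in sterilized diluvial soil, covered with about 1.5 cm of soil, and the soil surface was sprayed with a water-diluted emulsion of the compound at a predetermined rate. Plants grew in a greenhouse at 25° C. to 30° C.; effects were scored visually 3 weeks after application.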

For series [1], the system named is Veronica persica. In words: Test Example 4: herbicidal effect by soil treatment (symbol R). The settings on record: for R: Veronica persica, herbicidal effect grade: 320 g/ha. The gist of the method: as §2
For series [2], the system named is Lolium multiflorum Lam. In words: Test Example 5: herbicidal effect by foliage application, plastic box (symbol K). The note with it: 320 g/ha, 3 weeks after application. Put shortly: as §1
Series [3] deals with Alopecurus myosuroides. The experiment in a line: Test Example 5: herbicidal effect by foliage application, plastic box (symbol J). The settings on record: 320 g/ha, 3 weeks after application. Put shortly:
as §1

For a further series, the system named is rice. In words: Test Example 4: effect on crop by soil treatment (symbol b). The note with it: for b: directly sowed rice plant, effect grade on crop: 320 g/ha. The gist of the method:
(§3)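 Seeds were sown in spots on sterilized diluvial soil in a plastic box and covered with about 1.5 cm of soil. Plants were then grown in a greenhouse at 25° C. to 30° C.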

Series [4] concerns Setaria viridis. In words: Test Example 5: herbicidal effect by foliage application, plastic box (symbol G). The settings on record: 320 g/ha, 3 weeks after application. The gist of the method: as §1
The subject of series [5] is soybean. The experiment in a line: Test Example 5: effect on crop by foliage application, plastic box (symbol d). The note with it: 320 g/ha, 3 weeks after application. The gist of the method:
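Greenhouse test at 25° C. to 30° C. Seeds of crops and weeds were spot-sown in boxes of sterilized diluvial soil under roughly 1.5 cm soil cover, then grown for foliage treatment.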

In a further series the test system is Apera spica-venti. In words: Test Example 4: herbicidal effect by soil treatment (symbol L). The note with it: for L: Apera spica-venti, herbicidal effect grade: 320 g/ha. The gist of the method:
as §2

The subject of series [6] is Setaria viridis. The experiment in a line: Test Example 4: herbicidal effect by soil treatment (symbol G). The note with it: for G: Setaria viridis, herbicidal effect grade: 320 g/ha. The gist of the method: as §2
The subject of series [7] is Alopecurus myosuroides. The experiment in a line: Test Example 4: herbicidal effect by soil treatment (symbol J). The settings on record: for J: Alopecurus myosuroides, herbicidal effect grade: 320 g/ha. Put shortly: as §2
For series [8], the system named is Veronica persica. In words: Test Example 5: herbicidal effect by foliage application, plastic box (symbol R). The settings on record: 320 g/ha, 3 weeks after application. Put shortly:
as §1

The subject of the next series is Amaranthus retroflexus. The experiment in a line: Test Example 5: herbicidal effect by foliage application, plastic box (symbol N). The note with it: 320 g/ha, 3 weeks after application. Put shortly:
as §1

For series [9], the system named is Echinochloa oryzacola Vasing. The experiment in a line: Test Example 1: herbicidal activity, application before weed generation in submerged conditions (symbol A). The note with it: application herbicide amount 320 g/ha. Put shortly: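 0–5 visual score, 3 wk post-application. Submerged pots, alluvial soil, water 4 cm; seeds sown mixed, rice at 2.5 leaves transplanted. Emulsion diluted to predetermined dose, applied to water surface at sowing. 25–30 °C greenhouse.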

The subject of series [10] is Lolium multiflorum Lam. The experiment in a line: Test Example 4: herbicidal effect by soil treatment (symbol K). The note with it: for K: Lolium multiflorum Lam., herbicidal effect grade: 320 g/ha. Put shortly: as §2
The subject of the next series is wheat. The experiment in a line: Test Example 4: effect on crop by soil treatment (symbol e). The settings on record: for e: wheat, effect grade on crop: 320 g/ha. Put shortly: as §3
Another series relates to corn. In words: Test Example 4: effect on crop by soil treatment (symbol c). The settings on record: for c: corn, effect grade on crop: 320 g/ha. The gist of the method:
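The test used sterilized diluvial soil. Seed was set down in spots and overlaid with about 1.5 cm of soil before growth in a greenhouse kept at 25° C. to 30° C.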

The test system of series [11] is soybean. In words: Test Example 4: effect on crop by soil treatment (symbol d). The note with it: for d: soybean, effect grade on crop: 320 g/ha. Put shortly: as §3
[12] abbreviates: application herbicide amount 320 g/ha.

With `CC(CC1CC(OC(=O)COc2ccccc2)=C(c2c(C)cc(-c3ccc(Cl)cc3)cc2C)C1=O)=NOCC(F)(F)F` (mixture of isomers) [9-027], the “E herbicidal effect grade” value in the series on Cyperus difformis (Table 24) is 5 (Herbicidal ratio of 90% or more (almost completely withered)). In the series with Avena fatua, the “I: Avena fatua, herbicidal effect grade” value is listed as 5 (Herbicidal ratio of 90% or more (almost completely withered)). The “Herbicidal effect grade, Q: Galium spurium” value in the series on Galium spurium (setting [12]) was 0 (Herbicidal ratio of 5% or lower (almost no effect)). Also, the “Herbicidal effect grade, R: Veronica persica” value with Veronica persica [1] (setting [12]) was 3 (Herbicidal ratio of 40% or higher and lower than 70%). Also, in the series with Lolium multiflorum Lam. [2], the “K: Lolium multiflorum Lam., herbicidal effect grade” value was 5 (Herbicidal ratio of 90% or more (almost completely withered)). For the same molecule, in the series on Alopecurus myosuroides [3], the “J: Alopecurus myosuroides, herbicidal effect grade” value is listed as 5 (Herbicidal ratio of 90% or more (almost completely withered)). For the same molecule, in the series on rice (setting [12]), the “Effect on crop grade, b: directly sowed rice plant” value is reported as 5 (Herbicidal ratio of 90% or more (almost completely withered)). For the same molecule, the “G: Setaria viridis, herbicidal effect grade” value in the series with Setaria viridis [4] was 5 (Herbicidal ratio of 90% or more (almost completely withered)). Besides, the “d: soybean, effect on crop grade” value in the series with soybean [5] is given as 0 (Herbicidal ratio of 5% or lower (almost no effect)). The “Herbicidal effect grade, L: Apera spica-venti” value in the series on Apera spica-venti (setting [12]) was 5 (Herbicidal ratio of 90% or more (almost completely withered)). Besides, the “Herbicidal effect grade, G: Setaria viridis” value in the series on Setaria viridis [6] (setting [12]) was 5 (Herbicidal ratio of 90% or more (almost completely withered)). For the same molecule, the “Herbicidal effect grade, J: Alopecurus myosuroides” value in the series on Alopecurus myosuroides [7] (setting [12]) is given as 5 (Herbicidal ratio of 90% or more (almost completely withered)). In the series with Veronica persica [8], the “R: Veronica persica, herbicidal effect grade” value was 2 (Herbicidal ratio of 20% or higher and lower than 40%). Also, in the series with Amaranthus retroflexus, the “N: Amaranthus retroflexus, herbicidal effect grade” value is given as 0 (Herbicidal ratio of 5% or lower (almost no effect)). Also, the “A (Echinochloa oryzacola Vasing.) herbicidal effect grade” value in series [9] is listed as 5 (Herbicidal ratio of 90% or more (almost completely withered)). Further, in the series with Lolium multiflorum Lam. [10] (setting [12]), the “Herbicidal effect grade, K: Lolium multiflorum Lam.” value is given as 5 (Herbicidal ratio of 90% or more (almost completely withered)). For the same molecule, the “Effect on crop grade, e: wheat” value with wheat (setting [12]) is 2 (Herbicidal ratio of 20% or higher and lower than 40%). In addition, the “Effect on crop grade, c: corn” value in the series with corn (setting [12]) was 0 (Herbicidal ratio of 5% or lower (almost no effect)). Moreover, the “Effect on crop grade, d: soybean” value in the series on soybean [11] (setting [12]) is reported as 0 (Herbicidal ratio of 5% or lower (almost no effect)).
On to `CC(CC1CC(O)=C(c2c(C)cc(C)cc2C)C1=O)=NOCC1OCCO1` (stereo not drawn) [1-111], for which, in the series with Cyperus difformis, the “herbicidal effect on E, grade 0-5” value is reported as 5 (Herbicidal ratio of 90% or more (almost completely withered)). The “I: Avena fatua, herbicidal effect (criteria 0-5)” value with Avena fatua is recorded as 5 (Herbicidal ratio of 90% or more (almost completely withered)). For the same molecule, in the series on Galium spurium, the “Q: Galium spurium, herbicidal effect grade” value is 0 (Herbicidal ratio of 5% or lower (almost no effect)). In the series with Veronica persica [1], the “R: Veronica persica, herbicidal effect grade” value is given as 0 (Herbicidal ratio of 5% or lower (almost no effect)). In addition, the “K: Lolium multiflorum Lam., herbicidal effect (criteria 0-5)” value with Lolium multiflorum Lam. [2] is reported as 5 (Herbicidal ratio of 90% or more (almost completely withered)). For the same molecule, the “J: Alopecurus myosuroides, herbicidal effect (criteria 0-5)” value with Alopecurus myosuroides [3] is listed as 5 (Herbicidal ratio of 90% or more (almost completely withered)). Further, the “b: directly sowed rice plant, effect grade on crop” value in the series with rice is recorded as 5 (Herbicidal ratio of 90% or more (almost completely withered)). Moreover, the “G: Setaria viridis, herbicidal effect (criteria 0-5)” value in the series on Setaria viridis [4] is reported as 5 (Herbicidal ratio of 90% or more (almost completely withered)). In the series on soybean [5], the “d: soybean, effect on crop (criteria 0-5)” value is 3 (Herbicidal ratio of 40% or higher and lower than 70%). Besides, in the series on Apera spica-venti, the “L: Apera spica-venti, herbicidal effect grade” value is on record as 5 (Herbicidal ratio of 90% or more (almost completely withered)). In addition, in the series on Setaria viridis [6], the “G: Setaria viridis, herbicidal effect grade” value was 5 (Herbicidal ratio of 90% or more (almost completely withered)). Further, the “J: Alopecurus myosuroides, herbicidal effect grade” value in the series on Alopecurus myosuroides [7] was 5 (Herbicidal ratio of 90% or more (almost completely withered)). In the series with Veronica persica [8], the “R: Veronica persica, herbicidal effect (criteria 0-5)” value is 1 (Herbicidal ratio of 5% or higher and lower than 20%). Also, the “N: Amaranthus retroflexus, herbicidal effect (criteria 0-5)” value in the series on Amaranthus retroflexus is reported as 0 (Herbicidal ratio of 5% or lower (almost no effect)). Moreover, the “Herbicidal effect grade, A: Echinochloa oryzacola Vasing.” value in [9] is listed as 5 (Herbicidal ratio of 90% or more (almost completely withered)). Further, the “K: Lolium multiflorum Lam., herbicidal effect grade” value in the series with Lolium multiflorum Lam. [10] was 5 (Herbicidal ratio of 90% or more (almost completely withered)). In addition, the “e: wheat, effect grade on crop” value in the series with wheat was 5 (Herbicidal ratio of 90% or more (almost completely withered)). In addition, the “c: corn, effect grade on crop” value in the series with corn was 1 (Herbicidal ratio of 5% or higher and lower than 20%). In the series on soybean [11], the “d: soybean, effect grade on crop” value was 1 (Herbicidal ratio of 5% or higher and lower than 20%).
Regarding `CON=C(C)CC1CC(OC(=O)N2CCOCC2)=C(c2c(C)cc(C)cc2C)C1=O` (stereo not drawn) [1-104], in the series on Cyperus difformis, the “herbicidal effect on E, grade 0-5” value is given as 5 (Herbicidal ratio of 90% or more (almost completely withered)). In the series with Avena fatua, the “I: Avena fatua, herbicidal effect (criteria 0-5)” value is recorded as 5 (Herbicidal ratio of 90% or more (almost completely withered)). Also, in the series with Galium spurium, the “Q: Galium spurium, herbicidal effect grade” value is reported as 0 (Herbicidal ratio of 5% or lower (almost no effect)). Also, the “R: Veronica persica, herbicidal effect grade” value in the series on Veronica persica [1] is recorded as 0 (Herbicidal ratio of 5% or lower (almost no effect)). The “K: Lolium multiflorum Lam., herbicidal effect (criteria 0-5)” value with Lolium multiflorum Lam. [2] is 5 (Herbicidal ratio of 90% or more (almost completely withered)). For the same molecule, the “J: Alopecurus myosuroides, herbicidal effect (criteria 0-5)” value with Alopecurus myosuroides [3] is given as 5 (Herbicidal ratio of 90% or more (almost completely withered)). Further, the “b: directly sowed rice plant, effect grade on crop” value with rice was 5 (Herbicidal ratio of 90% or more (almost completely withered)). Also, in the series on Setaria viridis [4], the “G: Setaria viridis, herbicidal effect (criteria 0-5)” value is listed as 5 (Herbicidal ratio of 90% or more (almost completely withered)). Also, the “d: soybean, effect on crop (criteria 0-5)” value with soybean [5] was 1 (Herbicidal ratio of 5% or higher and lower than 20%). The “L: Apera spica-venti, herbicidal effect grade” value in the series on Apera spica-venti is listed as 5 (Herbicidal ratio of 90% or more (almost completely withered)). For the same molecule, the “G: Setaria viridis, herbicidal effect grade” value with Setaria viridis [6] is on record as 5 (Herbicidal ratio of 90% or more (almost completely withered)). The “J: Alopecurus myosuroides, herbicidal effect grade” value in the series on Alopecurus myosuroides [7] is given as 5 (Herbicidal ratio of 90% or more (almost completely withered)). For the same molecule, the “R: Veronica persica, herbicidal effect (criteria 0-5)” value in the series with Veronica persica [8] was 1 (Herbicidal ratio of 5% or higher and lower than 20%). The “N: Amaranthus retroflexus, herbicidal effect (criteria 0-5)” value in the series with Amaranthus retroflexus is recorded as 0 (Herbicidal ratio of 5% or lower (almost no effect)). Also, the “Herbicidal effect grade, A: Echinochloa oryzacola Vasing.” value in series [9] is 5 (Herbicidal ratio of 90% or more (almost completely withered)). For the same molecule, in the series on Lolium multiflorum Lam. [10], the “K: Lolium multiflorum Lam., herbicidal effect grade” value is given as 5 (Herbicidal ratio of 90% or more (almost completely withered)). Also, the “e: wheat, effect grade on crop” value in the series with wheat is 1 (Herbicidal ratio of 5% or higher and lower than 20%). Also, the “c: corn, effect grade on crop” value in the series with corn was 1 (Herbicidal ratio of 5% or higher and lower than 20%). The “d: soybean, effect grade on crop” value with soybean [11] is given as 0 (Herbicidal ratio of 5% or lower (almost no effect)).
